Data published in US10208011B2, “Benzothiophene estrogen receptor modulators” (G1 Therapeutics, Inc., priority 2017, dated 2019).

Experiments:
[1] = biological target: estrogen receptor α in MCF7 cells (Homo sapiens (Human), UniProt P03372); assay: Estrogen Receptor (ER) Degradation Assay (In-Cell Western); type: cell-based; conditions: for IC50: 24 hours, In-Cell Western; for % Estrogen Receptor Remaining: vehicle set to 100%
Experimental: A screening strategy was implemented utilizing an In-Cell Western assay to measure their ability to degrade the estrogen receptor in vitro. MCF7 cells, which are estrogen receptor positive, were plated at a cell density of […] into black walled clear bottom 96-well plates. Cells were incubated in phenol red free Dulbecco's Modified Eagle Media (DMEM) supplemented with 8% charcoal-stripped fetal bovine calf serum for 24 hours in a humidified 37° C. incubator. Concentrated stock compounds were diluted to 10× in complete media. Compounds were added to the plated cells in a dose-dependent manner ranging from 1E-12 to 1E-05 M and incubated for an additional 24 hours at 37° C. Culture medium was removed from the culture plates by gentle inversion. Cells were fixed in 4% paraformaldehyde in 1× phosphate buffered saline-calcium magnesium free (PBS-CMF) for 15 minutes at room temperature, washed 3 times for 5 minutes each in 1×PBS-CMF. Cells were permeabilized in immunofluorescence (IF) blocking buffer (Cell Signaling #12411) containing 0.3% Triton X100. Cells were washed 3 times for 5 minutes each in 1×PBS-CMF and incubated in estrogen receptor α (D6R2W) rabbit primary antibody (Cell Signaling #13258) diluted 1:300 in IF antibody dilution buffer (Cell Signaling #12378). Cells were washed 3 times for 5 minutes each in 1×PBS-CMF and stained with goat anti-rabbit (Biotium #CF770) secondary antibody diluted 1:2000 in IF antibody dilution buffer and normalizing stain CellTag 700 diluted 1:500 (Licor #926-41090). ER protein expression was assessed by the Licor Odyssey CLx imaging system using Image Studio v5.2. Data is processed utilizing GraphPad Prism 7 by subtracting background from the vehicle and setting the vehicle to 100% ER activity, followed by comparing treated samples to vehicle. This procedure was used to produce the graph in FIG. 2, FIG. 3, FIG. 4, FIG. 5, FIG. 6, FIG. 7, and FIG. 8.
(§1) In the below table for the Estrogen Receptor Degradation Assay and the Human ERα Reporter Assay: […]

[2] = biological target: human estrogen receptor (ERα) (Homo sapiens (Human), UniProt P03372); assay: Human ERα Reporter Assay (Indigo Biosciences); type: cell-based; conditions: antagonist mode, 17β-estradiol 8E-10 M, 24 hours
Experimental: All reagents used in this assay was supplied in the Human ERα Reporter Assay by Indigo Biosciences # IB00401. In an effort to screen selective estrogen receptor degraders (SERDs), the Human ERα Reporter Assay, supplied by Indigo Biosciences, was utilized to quantify antagonist functional activity against the human estrogen receptor. Reporter cells were thawed at 37° C. and added to pre-warmed to 37° C. cell recovery medium (CRM). Stock concentration of 17β-estradiol was serially diluted in CRM. Diluted 17β-estradiol was added to CRM containing reporter cells resulting in a working concentration of 1.6 nM (2×). Cells plus 17β-estradiol were dispensed in a kit-supplied white walled 96-well plate. Concentrated stocks of test compounds were diluted to 2× working concentrations in cell screening medium (CSM). 2× concentrated compounds were added to the plated cells in a dose-dependent manner resulting in a final concentration range of 1E-11 to 1E-5 M and a final 17β-estradiol concentration of 8E-10 M. Assay plates were incubated for 24 hours in a humidified 37° C. incubator. Culture medium was removed from the assay plates by inversion. Detection substrate and buffer was warmed to room temperature, mixed thoroughly, and immediately added to the assay plates. Assay plates were incubated for 15 minutes at room temperature protected from light. Luminescence was measured in a Synergy HTX luminescence plate reader. Data is processed utilizing GraphPad Prism 7 by graphing the relative light units measured at each compound concentration. This procedure was used to produce the graph in FIG. 1, FIG. 9, FIG. 10, FIG. 11, FIG. 12, FIG. 13, and FIG. 14.
as §1

Chain of estrogen receptor α in MCF7 cells (P03372 whole entry): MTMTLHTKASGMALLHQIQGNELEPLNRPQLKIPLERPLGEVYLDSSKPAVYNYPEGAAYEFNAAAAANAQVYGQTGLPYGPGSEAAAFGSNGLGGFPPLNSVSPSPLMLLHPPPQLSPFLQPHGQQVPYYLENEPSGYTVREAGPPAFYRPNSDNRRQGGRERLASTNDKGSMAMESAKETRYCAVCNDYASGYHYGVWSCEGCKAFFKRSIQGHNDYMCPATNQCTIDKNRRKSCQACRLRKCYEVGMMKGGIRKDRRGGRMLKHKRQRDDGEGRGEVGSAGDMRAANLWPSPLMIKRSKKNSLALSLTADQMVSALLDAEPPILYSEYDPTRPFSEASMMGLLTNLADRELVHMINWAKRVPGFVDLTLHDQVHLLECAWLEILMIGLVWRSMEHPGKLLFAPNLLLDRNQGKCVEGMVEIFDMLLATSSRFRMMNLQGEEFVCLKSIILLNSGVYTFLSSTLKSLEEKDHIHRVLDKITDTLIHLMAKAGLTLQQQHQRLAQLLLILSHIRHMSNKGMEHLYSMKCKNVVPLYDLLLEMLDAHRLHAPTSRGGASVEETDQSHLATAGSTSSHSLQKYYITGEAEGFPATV
Chain of human estrogen receptor (ERα) (P03372 whole entry): as above

| Compound | IC50 [1] [µM] | % Estrogen Receptor Remaining [1] | IC50 [2] [µM] |
| --- | --- | --- | --- |
| Cc1cc(F)cc(C)c1C(=O)c1sc2cc(O)ccc2c1Oc1ccc(N2CCCCCC2)cc1 [Compound 102, (3-(4-(azepan-1-yl)phenoxy)-6-hydroxybenzo[b]thiophen-2-yl)(4-fluoro-2,6-dimethylphenyl)methanone] | < 1 | *** (*** denotes 41-70% Estrogen Receptor remaining) | < 1 |
| Cc1cc(F)cc(C)c1C(=O)c1sc2cc(O)ccc2c1Oc1ccc(CN)cc1 [Compound 115, (3-(4-(aminomethyl)phenoxy)-6-hydroxybenzo[b]thiophen-2-yl)(4-fluoro-2,6-dimethylphenyl)methanone] | < 1 | *** (*** denotes 41-70% Estrogen Receptor remaining) | < 1 |
| CNCCCc1ccc(Oc2c(C(=O)c3c(C)cc(F)cc3C)sc3cc(O)ccc23)cc1 [Compound 116, (4-fluoro-2,6-dimethylphenyl)(6-hydroxy-3-(4-(3-(methylamino)propyl)phenoxy)benzo[b]thiophen-2-yl)methanone] | < 1 | *** (*** denotes 41-70% Estrogen Receptor remaining) | < 1 |
| Cc1cc(F)cc(C)c1C(=O)c1sc2cc(O)ccc2c1Oc1ccc(CCN2CC[C@H](C)C2)cc1 [Compound 118, (S)-(4-fluoro-2,6-dimethylphenyl)(6-hydroxy-3-(4-(2-(3-methylpyrrolidin-1-yl)ethyl)phenoxy)benzo[b]thiophen-2-yl)methanone] | < 1 | *** (*** denotes 41-70% Estrogen Receptor remaining) | < 1 |
| CCC(C)NCCc1ccc(Oc2c(C(=O)c3c(C)cc(F)cc3C)sc3cc(O)ccc23)cc1 (stereo not shown) [Compound 111, (3-(4-(2-(sec-butylamino)ethyl)phenoxy)-6-hydroxybenzo[b]thiophen-2-yl)(4-fluoro-2,6-dimethylphenyl)methanone] | < 1 | **** (**** denotes 0-40% Estrogen Receptor remaining) | < 1 |
| Cc1cc(F)cc(C)c1C(=O)c1sc2cc(O)ccc2c1-c1ccc(OCCN2CC(CF)C2)cc1 [Compound 120, (4-f1uoro-2,6-dimethylphenyl)(3-(4-(2-(3-(fluoromethyl)azetidin-1-yl)ethoxy)phenyl)-6-hydroxybenzo[b]thiophen-2-yl)methanone] | < 1 | *** (*** denotes 41-70% Estrogen Receptor remaining) | < 50 |
| Cc1cc(F)cc(C)c1C(=O)c1sc2cc(O)ccc2c1Oc1ccc(C2CCCNC2)cc1 (stereo not shown) [Compound 103, (4-fluoro-2,6-dimethylphenyl)(6-hydroxy-3-(4-(piperidin-3-yl)phenoxy)benzo[b]thiophen-2-yl)methanone] | < 50 | **** (**** denotes 0-40% Estrogen Receptor remaining) | < 1 |
| Cc1cc(F)cc(C)c1C(=O)c1sc2cc(O)ccc2c1Oc1ccc(CN(C)C)cc1 [Compound 114, (3-(4-((dimethylamino)methyl)phenoxy)-6-hydroxybenzo[b]thiophen-2-yl)(4-fluoro-2,6-dimethylphenyl)methanone] | < 1 | ** (** denotes 71-90% Estrogen Receptor remaining) | < 1 |
| CCNCCc1ccc(Oc2c(C(=O)c3c(C)cc(F)cc3C)sc3cc(O)ccc23)cc1 [Compound 100, (3-(4-(2-(ethylamino)ethyl)phenoxy)-6-hydroxybenzo[b]thiophen-2-yl)(4-fluoro-2,6-dimethylphenyl)methanone] | < 1 | **** (**** denotes 0-40% Estrogen Receptor remaining) | < 1 |
| CCNCCc1ccc(CN(CC)c2cc(OC)ccc2[C@@H]2CCc3cc(O)ccc3C2)cc1.Cl.Cl (stereo in doubt) [RAD- 1901, reference compound] |  | **** (**** denotes 0-40% Estrogen Receptor remaining) |  |
| CCC(CC)NCCc1ccc(Oc2c(C(=O)c3c(C)cc(F)cc3C)sc3cc(O)ccc23)cc1 [Compound 109, (4-fluoro-2,6-dimethylphenyl)(6-hydroxy-3-(4-(2-(pentan-3-ylamino)ethyl)phenoxy)benzo[b]thiophen-2-yl)methanone] | < 1 | *** (*** denotes 41-70% Estrogen Receptor remaining) | < 1 |
| Cc1cc(F)cc(C)c1C(=O)c1sc2cc(O)ccc2c1Oc1ccc(CCN2CC(CF)C2)cc1 [Compound 117, (4-fluoro-2,6-dimethylphenyl)(3-(4-(2-(3-(fluoromethyl)azetidin-1-yl)ethyl)phenoxy)-6-hydroxybenzo[b]thiophen-2-yl)methanone] | < 1 | *** (*** denotes 41-70% Estrogen Receptor remaining) | < 1 |
| Cc1cc(F)cc(C)c1C(=O)c1sc2cc(O)ccc2c1Oc1ccc(CCNC2CCCCC2)cc1 [Compound 110, (3-(4-(2-(cyclohexylamino)ethyl)phenoxy)-6-hydroxybenzo[b]thiophen-2-yl)(4-fluoro-2,6-dimethylphenyl)methanone] | < 1 | *** (*** denotes 41-70% Estrogen Receptor remaining) | < 1 |
| CNCc1ccc(Oc2c(C(=O)c3c(C)cc(F)cc3C)sc3cc(O)ccc23)cc1 [Compound 113, (4-fluoro-2,6-dimethylphenyl)(6-hydroxy-3-(4-((methylamino)methyl)phenoxy)benzo[b]thiophen-2-yl)methanone] | < 1 | *** (*** denotes 41-70% Estrogen Receptor remaining) | < 1 |
| Cc1cc(F)cc(C)c1C(=O)c1sc2cc(O)ccc2c1Oc1ccc(CCN)cc1 [Compound 104, (3-(4-(2-aminoethyl)phenoxy)-6-hydroxybenzo[b]thiophen-2-yl)(4-fluoro-2,6-dimethylphenyl)methanone] | < 1 | *** (*** denotes 41-70% Estrogen Receptor remaining) | < 1 |
| Cc1cc(F)cc(C)c1C(=O)c1sc2cc(O)ccc2c1Oc1ccc(N2CCCCC2)cc1 [Compound 101, (4-fluoro-2,6-dimethylphenyl)(6-hydroxy-3-(4-(piperidin-1-yl)phenoxy)benzo[b]thiophen-2-yl)methanone] | < 1 | *** (*** denotes 41-70% Estrogen Receptor remaining) | < 1 |
| Cc1cc(F)cc(C)c1C(=O)c1sc2cc(O)ccc2c1Oc1ccc(OCCN2CCCC2)cc1 [Compound 108, (4-fluoro-2,6-dimethylphenyl)(6-hydroxy-3-(4-(2-(pyrrolidin-1-yl)ethoxy)phenoxy)benzo[b]thiophen-2-yl)methanone] |  | *** (*** denotes 41-70% Estrogen Receptor remaining) |  |
| Cc1cc(F)cc(C)c1C(=O)c1sc2cc(O)ccc2c1-c1ccc(OCCN2CCC(CF)C2)cc1 (stereo not shown) [Compound 123, (4-fluoro-2,6-dimethylphenyl)(3-(4-(2-(3-(fluoromethyl)pyrrolidin-1-yl)ethoxy)phenyl)-6-hydroxybenzo[b]thiophen-2-yl)methanone] | < 1 | *** (*** denotes 41-70% Estrogen Receptor remaining) | < 50 |
| Cc1cc(F)cc(C)c1C(=O)c1sc2cc(O)ccc2c1Oc1ccc(OCCN2CCCCC2)cc1 [Compound 106, (4-fluoro-2,6-dimethylphenyl)(6-hydroxy-3-(4-(2-(piperidin-1-yl)ethoxy)phenoxy)benzo[b]thiophen-2-yl)methanone] |  | *** (*** denotes 41-70% Estrogen Receptor remaining) |  |
| Cc1cc(F)cc(C)c1C(=O)c1sc2cc(O)ccc2c1Oc1ccc(OCCN2CCCCCC2)cc1 [Compound 107, (3-(4-(2-(azepan-1-yl)ethoxy)phenoxy)-6-hydroxybenzo[b]thiophen-2-yl)(4-fluoro-2,6-dimethylphenyl)methanone] |  | *** (*** denotes 41-70% Estrogen Receptor remaining) |  |
